The values that follow are results of earlier work, collected in patent publication US10500182B2, “Compositions of ketogenic sources, micronutrients and phytochemicals for prophylaxis and mitigation of migraine headache” (priority 2018, dated 2019).

For data set [1], the system named is migraine. The note with it: oral and intravenous supplementation, migraineurs.
Data set [2] deals with migraine. The note with it: ten percent solution applied topically to the forehead and temples.

With `[Mg+2]` [magnesium, Magnesium], the “reduction of migraine frequency and severity” value with migraine [1] is reported as “more than 40%”.

On to `CC1CCC(C(C)C)C(O)C1` (centres unmarked) [menthol], for which the “migraine pain and nausea” value with migraine [2] is “effective at terminating migraine pain and easing nausea”.
